Source: patent US6867293B2, “Polynucleotide constructs having at least one transcriptional enhancer and encoding a modified rice EPSPS enzyme” (Syngenta Limited, priority 2000, dated 2005)
pIC50, pKi: −log10 of the molar value. Counter-ions that a name gives are not always drawn.

Columns and labels:
[1] = test system: sensitive w/t form of EPSPS (endogenous); experiment: EPSPS assay of plant extracts +/- 0.1 mM glyphosate, sensitive w/t form; assay type: biochemical, corn; conditions: 0.1 mM N-(phosphonomethyl)glycine, 0.1 mM 14C-PEP, 0.75 mM shikimate-3-Pi
Protocol: (§1) Assays are carried out generally according to the radiochemical method of Padgette et al 1987 (Archives of Biochemistry and Biophysics, 258(2) 564-573) with K+ ions as the major species of cationic counterion. Assays in a total volume of 50 μl, in 50 mM Hepes(KOH) pH 7.0 at 25° C., contain purified enzyme or plant extract (see below) diluted appropriately in Hepes pH 7.0 containing 10% glycerol, and 5 mM DTT, ^14C PEP either as variable substrate (for kinetic determinations) or fixed at 100 or 250 μM and shikimate 3 Phosphate (K+ salt) at 2 or 0.75 mM as indicated. Optionally, for assays of crude plant extracts, assays also contain 5 mM KF and/or 0.1 mM ammonium molybdate. Assays are started with the addition of ^14C phosphoenolpyruvate (cyclohexylammonium+salt) and stopped after 2-10 minutes (2 minutes is preferable) with the addition of 50 μl of a solution of 1 part 1M acetic acid and 9 parts ethanol. […] Apparent Km and Vmax values are determined by least squares fit to a hyperbola with simple weighting using the Grafit 3.09b from Erithacus Software Ltd. Km values are generally ascertained using 8-9 concentrations of variable substrate ranging from Km/2-10 Km and triplicate points. […]

[2] = test system: resistant form of EPSPS; experiment: EPSPS assay of plant extracts +/- 0.1 mM glyphosate, resistant form; assay type: biochemical, rice; conditions: 0.1 mM N-(phosphonomethyl)glycine, 0.1 mM 14C-PEP, 0.75 mM shikimate-3-Pi, estimated
Protocol: as §1

[3] = biological target: T1, mutant form of rice EPSPS (Oryza sativa, UniProt A0A0N9WU17, P177S/T173I); experiment: EPSPS enzyme assay and kinetic constants, purified mutant rice EPSPS expressed in E. coli; assay type: biochemical
T1 sequence (A0A0N9WU17 72-515 T173I/P177S): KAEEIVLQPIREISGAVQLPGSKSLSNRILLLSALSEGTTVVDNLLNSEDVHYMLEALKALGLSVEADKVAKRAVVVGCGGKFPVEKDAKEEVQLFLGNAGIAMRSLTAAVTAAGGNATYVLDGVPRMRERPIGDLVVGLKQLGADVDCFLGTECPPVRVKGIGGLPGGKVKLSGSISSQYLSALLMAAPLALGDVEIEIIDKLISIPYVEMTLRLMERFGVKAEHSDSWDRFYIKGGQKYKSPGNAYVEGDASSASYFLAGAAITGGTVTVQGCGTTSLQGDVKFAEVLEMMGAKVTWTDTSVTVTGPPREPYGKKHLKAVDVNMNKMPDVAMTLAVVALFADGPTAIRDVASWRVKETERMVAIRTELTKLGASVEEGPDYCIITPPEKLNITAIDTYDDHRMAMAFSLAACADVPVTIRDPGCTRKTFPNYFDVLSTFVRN
Protocol: as §1

Structure (SMILES)	inhibition of sensitive w/t EPSPS [1] [%]	inhibition of resistant (tolerant) EPSPS [2] [%]	inhibition of resistant (tolerant) EPSPS ([2]; listed as N-(phosphonomethyl)glycine) [%]	pIC50 [3]	pKi [3]
O=C(O)CNCP(=O)(O)O [glyphosate, N-phosphonomethylglycine]	> 98	~8	< 8.5	–	–
O=C(O)CNCP(=O)(O)O [potassium salt of glyphosate]	–	–	–	~3.22	~3.70
